Key:
Type in all cases: binding
MtrC [1] = target: T1, MtrC (Shewanella oneidensis, UniProt Q8EG34); experiment: PD10 gel-filtration co-elution, spectroscopy; settings: anaerobic, reduced glutathione (disulfide reduced), 20 mM HEPES pH 7.6, room temperature
T1 construct: soluble; pLS146 in S. oneidensis LS329; model residues 45-670
T1 sequence (Q8EG34 26-671): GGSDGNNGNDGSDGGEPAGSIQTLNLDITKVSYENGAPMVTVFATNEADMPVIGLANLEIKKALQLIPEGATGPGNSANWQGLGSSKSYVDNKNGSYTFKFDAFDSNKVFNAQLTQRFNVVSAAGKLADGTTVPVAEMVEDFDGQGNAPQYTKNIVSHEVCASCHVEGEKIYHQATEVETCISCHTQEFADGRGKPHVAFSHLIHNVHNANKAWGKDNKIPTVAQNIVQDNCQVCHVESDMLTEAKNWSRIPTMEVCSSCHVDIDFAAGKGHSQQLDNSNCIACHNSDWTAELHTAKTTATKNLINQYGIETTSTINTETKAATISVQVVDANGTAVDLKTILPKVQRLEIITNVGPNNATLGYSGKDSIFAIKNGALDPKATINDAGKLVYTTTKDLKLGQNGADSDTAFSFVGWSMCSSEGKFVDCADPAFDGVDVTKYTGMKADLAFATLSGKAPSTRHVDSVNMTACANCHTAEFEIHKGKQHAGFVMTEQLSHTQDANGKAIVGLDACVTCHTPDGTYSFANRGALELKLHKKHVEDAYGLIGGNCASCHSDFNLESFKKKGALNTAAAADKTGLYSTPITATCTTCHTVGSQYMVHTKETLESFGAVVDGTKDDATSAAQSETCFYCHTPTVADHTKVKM

MtrF = target: T2, MtrF (Shewanella oneidensis, UniProt Q8EG32); experiment: PD10 gel-filtration co-elution, flavin fluorescence ([…] nm); settings: anaerobic, 1 mM reduced glutathione (disulfide reduced), 10 uM FMN, 20 mM HEPES pH 7.6, room temperature
T2 construct: detergent-solubilised form, isolated as in earlier work
T2 sequence (Q8EG32 24-639): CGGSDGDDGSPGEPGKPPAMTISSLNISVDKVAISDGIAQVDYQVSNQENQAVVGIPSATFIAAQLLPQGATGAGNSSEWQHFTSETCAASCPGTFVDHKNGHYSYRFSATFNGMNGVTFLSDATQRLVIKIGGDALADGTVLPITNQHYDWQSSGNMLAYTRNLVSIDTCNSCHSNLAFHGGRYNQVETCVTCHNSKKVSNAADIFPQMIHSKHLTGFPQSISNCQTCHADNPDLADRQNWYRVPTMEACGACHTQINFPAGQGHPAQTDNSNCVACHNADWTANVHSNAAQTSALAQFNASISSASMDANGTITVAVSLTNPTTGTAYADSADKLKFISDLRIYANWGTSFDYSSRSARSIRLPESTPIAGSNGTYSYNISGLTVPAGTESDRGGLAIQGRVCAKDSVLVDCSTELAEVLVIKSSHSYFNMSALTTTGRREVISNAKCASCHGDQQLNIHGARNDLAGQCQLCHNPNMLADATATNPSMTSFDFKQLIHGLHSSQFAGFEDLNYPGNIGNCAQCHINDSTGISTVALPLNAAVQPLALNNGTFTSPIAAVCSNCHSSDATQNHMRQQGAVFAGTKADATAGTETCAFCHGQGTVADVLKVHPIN

MtrC [2] = target: T1, MtrC; experiment: PD10 gel-filtration co-elution, flavin fluorescence and absorbance; fluorescence quenching; settings: anaerobic, 1 mM reduced glutathione (disulfide reduced), 1 uM MtrC, 10 uM FMN, 20 mM HEPES pH 7.6, room temperature
OmcA = target: T3, OmcA (Shewanella oneidensis, UniProt Q8EG33); experiment: PD10 gel-filtration co-elution, flavin fluorescence and absorbance; settings: anaerobic, 1 mM reduced glutathione (disulfide reduced), 10 uM FMN, 20 mM HEPES pH 7.6, room temperature
T3 construct: soluble form, isolated as in earlier work
T3 sequence (Q8EG33 28-735): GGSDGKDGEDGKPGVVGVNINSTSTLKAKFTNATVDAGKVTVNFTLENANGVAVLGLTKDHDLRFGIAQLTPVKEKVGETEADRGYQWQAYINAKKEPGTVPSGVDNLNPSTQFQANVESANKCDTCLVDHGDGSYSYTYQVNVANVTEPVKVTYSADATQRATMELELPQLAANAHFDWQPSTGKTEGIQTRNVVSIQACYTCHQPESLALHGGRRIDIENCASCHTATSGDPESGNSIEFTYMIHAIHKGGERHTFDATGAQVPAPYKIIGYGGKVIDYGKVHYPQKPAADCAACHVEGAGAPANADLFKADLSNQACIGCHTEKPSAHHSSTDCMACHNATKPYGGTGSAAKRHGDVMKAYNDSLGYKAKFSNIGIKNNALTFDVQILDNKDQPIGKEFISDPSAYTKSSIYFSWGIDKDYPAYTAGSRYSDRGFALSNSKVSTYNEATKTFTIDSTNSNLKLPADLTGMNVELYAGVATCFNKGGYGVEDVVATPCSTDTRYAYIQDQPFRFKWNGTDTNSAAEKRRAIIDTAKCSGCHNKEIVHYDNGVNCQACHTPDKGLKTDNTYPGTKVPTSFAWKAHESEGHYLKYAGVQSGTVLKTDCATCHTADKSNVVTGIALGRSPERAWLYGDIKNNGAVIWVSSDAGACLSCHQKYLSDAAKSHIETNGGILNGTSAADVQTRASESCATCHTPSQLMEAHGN

UndA = target: T4, UndA (Shewanella sp. HRCR_06, UniProt F8UWD6); experiment: PD10 gel-filtration co-elution, flavin fluorescence ([…] nm); settings: anaerobic, 1 mM reduced glutathione (disulfide reduced), 10 uM FMN, 20 mM HEPES pH 7.6, room temperature
T4 construct: soluble form, isolated as in earlier work
T4 sequence (F8UWD6 27-843): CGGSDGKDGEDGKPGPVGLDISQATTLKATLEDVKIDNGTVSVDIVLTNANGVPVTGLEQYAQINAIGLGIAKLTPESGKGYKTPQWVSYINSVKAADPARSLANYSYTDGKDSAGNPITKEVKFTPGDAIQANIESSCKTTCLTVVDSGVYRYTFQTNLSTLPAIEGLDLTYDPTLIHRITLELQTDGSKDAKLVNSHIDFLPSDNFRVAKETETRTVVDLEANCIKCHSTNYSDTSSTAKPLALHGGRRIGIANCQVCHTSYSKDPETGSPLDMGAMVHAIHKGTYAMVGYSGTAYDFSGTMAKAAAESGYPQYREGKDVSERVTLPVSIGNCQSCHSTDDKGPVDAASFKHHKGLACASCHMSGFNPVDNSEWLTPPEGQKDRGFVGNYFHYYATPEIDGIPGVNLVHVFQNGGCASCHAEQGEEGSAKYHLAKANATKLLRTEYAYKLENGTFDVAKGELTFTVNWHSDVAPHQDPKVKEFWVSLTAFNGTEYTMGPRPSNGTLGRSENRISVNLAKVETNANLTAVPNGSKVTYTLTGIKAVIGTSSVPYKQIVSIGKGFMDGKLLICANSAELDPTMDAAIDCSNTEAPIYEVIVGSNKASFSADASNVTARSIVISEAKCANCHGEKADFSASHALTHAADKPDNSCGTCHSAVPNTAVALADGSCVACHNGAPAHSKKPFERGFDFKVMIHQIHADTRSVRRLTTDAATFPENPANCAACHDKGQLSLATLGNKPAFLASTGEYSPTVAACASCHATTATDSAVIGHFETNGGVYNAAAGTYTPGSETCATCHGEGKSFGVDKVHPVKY

Structure (SMILES) | PD10 gel-filtration co-elution, spectroscopy (MtrC [1]) | PD10 gel-filtration co-elution, flavin fluorescence (525 nm) (MtrF) | PD10 gel-filtration co-elution, flavin fluorescence and absorbance; fluorescence (MtrC [2]) | PD10 gel-filtration co-elution, flavin fluorescence and absorbance (OmcA) | PD10 gel-filtration co-elution, flavin fluorescence (525 nm) (UndA)
Cc1cc2nc3c(=O)[nH]c(=O)nc-3n(C[C@H](O)[C@H](O)[C@H](O)CO)c2cc1C [riboflavin] | MtrC was also capable of tightly binding a single molecule of riboflavin | – | – | – | –
Cc1cc2nc3c(=O)[nH]c(=O)nc-3n(C[C@H](O)[C@H](O)[C@H](O)COP(=O)(O)O)c2cc1C [FMN] | – | OMMC-FMN interactions were also observed after incubation of MtrF or UndA with FMN | FMN associated specifically with MtrC in the presence of glutathione | Co-elution of FMN and OmcA was observed in the presence, but not the absence, of glutathione | OMMC-FMN interactions were also observed after incubation of MtrF or UndA with FMN
